Experimental findings from ChEMBL document CHEMBL4627311, “Discovery of 4-((1-(1H-imidazol-2-yl)alkoxy)methyl)pyridines as a new class of Trypanosoma cruzi growth inhibitors” (Bioorg Med Chem Lett, 2020) are described below.

Sterol 14-alpha demethylase, sequence (Q7Z1V1 whole entry): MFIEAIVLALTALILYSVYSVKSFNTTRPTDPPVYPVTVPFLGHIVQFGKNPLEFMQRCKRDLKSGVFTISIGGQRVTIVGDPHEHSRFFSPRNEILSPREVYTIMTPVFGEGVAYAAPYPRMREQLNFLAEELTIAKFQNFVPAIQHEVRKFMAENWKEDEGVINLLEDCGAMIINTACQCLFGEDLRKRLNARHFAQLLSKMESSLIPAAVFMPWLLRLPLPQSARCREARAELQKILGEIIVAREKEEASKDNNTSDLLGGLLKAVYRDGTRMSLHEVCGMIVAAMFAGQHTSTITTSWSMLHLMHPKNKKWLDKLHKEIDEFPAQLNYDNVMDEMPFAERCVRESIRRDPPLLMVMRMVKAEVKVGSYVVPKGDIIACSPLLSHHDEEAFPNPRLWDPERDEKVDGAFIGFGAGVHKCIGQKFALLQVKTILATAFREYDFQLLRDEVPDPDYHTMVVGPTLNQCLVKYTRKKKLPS

The subject of one assay is Trypanosoma cruzi. The assay is described as follows: Antitrypanosomal activity against Trypanosoma cruzi. Type of assay: functional, organism-based.
As to `CCC(=O)CCCCCC(Oc1cc2ccccc2nc1OC)c1ncc(Cc2ccncc2)[nH]1` (centres undefined), the midpoint of the response, the EC50, lay at 2000 nM.
In the case of `O=C(Cn1ccnc1[N+](=O)[O-])NCc1ccccc1` [BENZNIDAZOLE], the EC50 (in general, the concentration needed to bring the measured effect to its halfway point) was 2000 nM.
Still for that read-out and setting: in the case of `CC1CS(=O)(=O)CCN1/N=C/c1ccc([N+](=O)[O-])o1` (centres undefined) [NIFURTIMOX] it was 8000 nM.

Another assay has as its target Sterol 14-alpha demethylase (Trypanosoma cruzi (strain CL Brener), UniProt Q7Z1V1). As to the kind of experiment: Inhibition of Trypanosoma cruzi CYP51.
In the case of `CCC(=O)CCCCCC(Oc1ccc2ccccc2c1)c1ncc(Cc2ccccc2)[nH]1` (centres undefined), the IC50 (in general, the point on the concentration scale where inhibition reaches its midpoint) was 2900 nM.
In the case of `CC(OCc1ccncc1)c1ncc(-c2ccc3ccccc3c2)[nH]1` (centres undefined), 77 nM corresponded to half-maximal inhibition (IC50). This IC50 lies about 38-fold lower than the previous one.
The molecule `CCC(=O)CCCCCC(OCc1ccncc1)c1ncc(-c2ccc3ccccc3c2)o1` (centres undefined) showed an IC50 of 53 nM.
As to `CCC(=O)CCCCCC(Oc1ccc2ccccc2c1)c1ncc(Cc2ccncc2)[nH]1` (stereo in doubt; 11), the IC50 came to 52 nM.
`CCC(=O)CCCCCC(Oc1ccc2ccccc2c1)c1ncc(Cc2ccncc2)[nH]1` (stereo in doubt; 34) registered an IC50 of 41 nM.
Consider `CCC(=O)CCCCCC(Oc1ccc2ccccc2c1)c1ncc(Cc2ccncc2)[nH]1` (stereo in doubt; 35), for which half-maximal inhibition (IC50) required 34 nM. The IC50 values of the last two molecules are within 1.5-fold of each other.
